Results from US11958865B1, “Leucine-rich repeat kinase 2 (LRRK2) inhibitors” (H. Lundbeck A/S, priority 2022, dated 2024).
Like-named read-outs stand apart in the source and are kept apart here.

Experiments:
[1] = Hepatocyte intrinsic clearance assay; assay type: in vitro ADME, Human; details: pooled donor, cryopreserved hepatocytes, pH 7.4; human hepatocytes 1×10^6/mL; 0.05 μM; 2 h at 37° C.
Description: Test compounds (final concentration 0.05 μM, 0.05% organic) were incubated for 2 h at 37° C., with shaking, in supplemented Leibovitz L-15 media (pH 7.4) containing commercially sourced, pooled donor, cryopreserved hepatocytes (final concentration 1×10^6 hepatocytes/mL). The CLint reactions (350 μL) were initiated by addition of test compound. Aliquots (25 μL) were taken at 1, 5, 10, 15, 30, 60, 90 and 120 minutes and then protein crashed with ice-cold acetonitrile containing internal standard (150 μL) then centrifuged (1960 g for 20 minutes at 4° C.). Supernatant was diluted (1:4) with deionized water then analyzed by liquid chromatography (LC)-tandem mass spectrometry (MS/MS).

[2] = Hepatic microsomal intrinsic clearance assay; assay type: in vitro ADME; details: for CLint scaled at 1 μM: pooled liver microsomes, pH 7.4, liver microsomes 0.5 mg/mL, NADPH, 1 hour at 37° C., LLOQ 0.36 L/h/kg
Description: Compounds (final concentration 1 μM, 1% organic) of the invention were incubated for 1 hour at 37° C., with shaking, in phosphate buffer (pH 7.4) containing commercially sourced pooled liver microsomes (final concentration 0.5 mg/mL). […] At designated time points (0, 5, 10, 20, 30 and 60 minutes) ice-cold acetonitrile containing internal standard (300 μL) was added to an incubation well to stop the reaction then mixed and centrifuged (3220 g for 20 minutes at 4° C.). Supernatant was diluted (1:4) with deionized water then analyzed by LC-MS/MS.

LRRK2 WT [3] = target: T1, LRRK2 WT (Homo sapiens (Human), UniProt Q5S007); experiment: LRRK2 wild-type ADP-Glo kinase assay; assay type: biochemical; details: 0.5 nM kinase; 1.0 mM ATP; IC50=Ki,app+[E]/2; n≥2 tests; read-out: LRRK2 WT ADPGlo IC50
T1 sequence (Q5S007 970-2527): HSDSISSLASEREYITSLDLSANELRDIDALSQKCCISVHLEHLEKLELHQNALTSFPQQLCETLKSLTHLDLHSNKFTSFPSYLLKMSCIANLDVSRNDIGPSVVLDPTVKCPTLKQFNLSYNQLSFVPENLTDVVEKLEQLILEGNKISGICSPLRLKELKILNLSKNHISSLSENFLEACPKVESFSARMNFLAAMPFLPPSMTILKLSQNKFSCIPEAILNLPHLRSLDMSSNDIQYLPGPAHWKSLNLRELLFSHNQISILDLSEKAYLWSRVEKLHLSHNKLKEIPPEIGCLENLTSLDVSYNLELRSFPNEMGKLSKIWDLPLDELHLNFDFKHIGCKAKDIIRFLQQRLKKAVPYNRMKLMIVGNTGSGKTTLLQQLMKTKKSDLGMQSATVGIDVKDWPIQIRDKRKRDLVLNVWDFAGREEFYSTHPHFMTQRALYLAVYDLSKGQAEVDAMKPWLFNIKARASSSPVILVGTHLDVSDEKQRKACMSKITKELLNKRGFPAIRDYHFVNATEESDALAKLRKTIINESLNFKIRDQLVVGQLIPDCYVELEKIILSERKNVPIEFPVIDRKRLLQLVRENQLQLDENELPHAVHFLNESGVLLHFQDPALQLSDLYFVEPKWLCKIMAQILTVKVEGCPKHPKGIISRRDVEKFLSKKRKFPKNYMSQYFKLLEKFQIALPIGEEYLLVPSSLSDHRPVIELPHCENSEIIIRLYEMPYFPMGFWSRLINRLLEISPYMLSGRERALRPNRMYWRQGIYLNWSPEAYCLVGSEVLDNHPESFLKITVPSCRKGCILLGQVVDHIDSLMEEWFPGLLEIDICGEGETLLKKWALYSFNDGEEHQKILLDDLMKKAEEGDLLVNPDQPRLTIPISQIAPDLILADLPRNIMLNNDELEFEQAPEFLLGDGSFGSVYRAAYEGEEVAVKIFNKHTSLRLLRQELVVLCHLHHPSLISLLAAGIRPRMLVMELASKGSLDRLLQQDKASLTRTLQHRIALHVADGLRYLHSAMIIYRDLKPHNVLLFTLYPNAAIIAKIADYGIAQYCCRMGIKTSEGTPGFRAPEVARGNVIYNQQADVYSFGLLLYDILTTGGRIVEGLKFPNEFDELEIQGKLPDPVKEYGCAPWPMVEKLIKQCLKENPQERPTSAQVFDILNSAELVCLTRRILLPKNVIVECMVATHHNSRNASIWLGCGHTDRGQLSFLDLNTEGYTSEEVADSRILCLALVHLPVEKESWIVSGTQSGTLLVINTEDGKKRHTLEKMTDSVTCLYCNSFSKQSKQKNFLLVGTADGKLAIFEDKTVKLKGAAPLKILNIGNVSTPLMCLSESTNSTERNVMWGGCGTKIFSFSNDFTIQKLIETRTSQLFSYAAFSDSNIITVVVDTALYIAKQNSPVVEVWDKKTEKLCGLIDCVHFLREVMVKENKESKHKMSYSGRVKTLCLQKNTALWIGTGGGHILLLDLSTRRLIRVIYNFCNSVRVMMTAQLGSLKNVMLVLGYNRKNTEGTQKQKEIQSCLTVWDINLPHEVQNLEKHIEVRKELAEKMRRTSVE
Description: LRRK2 kinase activity was measured using an ADP-Glo kinase assay from Promega Corporation. The assay is a homogeneous luminescence-based assay that measures ADP formed from a kinase reaction. The ADP is converted into ATP, which is used to generate light in a luciferase reaction. The luminescence generated correlates with kinase activity.
The LRRK2 kinase was obtained from Invitrogen (Life Technologies Corporation) and comprises residue 970 to 2527 of the full length human wild-type LRRK2 kinase. The kinase reactions were performed in a 10 μL volume in 384-well plates. The kinase reaction buffer consisted of 50 mM Tris pH 8.5, 0.01% BRIJ-35, 10 mM MgCl2, 1 mM EGTA, and 2 mM DTT.
The reaction mixture (10 μl total volume) was incubated for 3 hours at room temperature (RT, ca. 25° C.), before the reaction was terminated by addition of 10 μl ADP-Glo reagent. The mixture was further incubated for 60 minutes at RT before addition of 20 μl Kinase detection reagent from the ADP-Glo assay kit. Luminescence signal was measure on a BMG Labtech Pherastar FSX multimode microplate reader. The signal integration time was 0.5 s.
Test compound potency (Ki,app) was estimated by nonlinear regression using the tight-binding fit model in GeneData Screener (GeneData AG). In cases where the Ki,app could not be determined, the % inhibition at the highest tested concentration is reported. The tight-binding fit model is given by euquation (2). […] Ki,app is the apparent dissociation constant of the inhibitor. The IC50 can be calculated as given by equation (3). Equation (3): IC50=Ki,app+[E]/2 (3) IC50 estimates were obtained from independent experiment and the logarithmic average was calculated.

[4] = Rat brain disposition after oral gavage; assay type: in vivo, male Sprague-Dawley rats; details: male, Sprague-Dawley, oral 5 mg/kg, 1 h, mean ± stdev; for Kp at 1 h / Kp uu at 1 h: n=3
Description: Brain disposition was evaluated in male Sprague-Dawley rats (n=3, standard body weight). Briefly, test compound was formulated as a simple suspension (0.5% HPMC in water) then administered by oral gavage (10 mg/kg, 10 mL/kg or 5 mg/kg, 10 mL/kg). At the designated time point (0.5 or 1 h post dose) rats were sacrificed and terminal blood and brain samples taken. Isolated plasma and brain homogenates were extracted by standard protein precipitation in acetonitrile, containing internal standard. Diluted extracts were analyzed by liquid-chromatography coupled with tandem mass spectrometry detection (LC-MS/MS) using a bioanalytical method. Concentrations of test compound in plasma and brain were quantified against matrix matched calibration standards. The total plasma and brain concentration time data are presented in Table 4 alongside the calculated brain Kp (total brain concentration:total plasma concentration ratio).
The total brain-to-plasma partition coefficient (brain Kp) is given by the ratio of the total brain concentration and total plasma concentration of the compound according to the equation below: […]
Based on the measured rat fuplasma and fubrain values and the brain Kp the unbound brain-to-plasma partition coefficient (brain Kp,uu for each compound was calculated. The Kp,uu parameter describes the extent of brain penetration for each compound, i.e. the parameter gives a direct quantitative description of how the blood-brain barrier (BBB) handles the compounds regarding passive transport and active influx/efflux. The brain Kp,uu is given by the equation below: […]

[5] = Fraction unbound in rat plasma and brain homogenate by equilibrium dialysis; assay type: in vitro ADME, male Sprague-Dawley rat; details: 1 μM, equilibrium dialysis 5 h at 37° C.; for fubrain (% free): rat brain homogenate; for fuplasma (% free): rat plasma
Description: The fraction of unbound compound in male Sprague-Dawley rat plasma (fuplasma) and brain homogenate (fubrain) were determined by equilibrium dialysis using 96-well HTD-dialysis plates with dialysis membranes (molecular weight cut off 12-14 KDa). One side of the HTD-dialysis plate was loaded with matrix (plasma or brain homogenate) and the other side with buffer (100 mM sodium phosphate buffer, pH 7.4). Test compounds were dissolved in DMSO then spiked (5 μL of 0.2 mM) into blank (995 μL) plasma or diluted brain homogenate (1:4 ratio in phosphate buffer) giving a final nominal concentration 1 μM (≤0.5% DMSO). The matrices were loaded into respective chambers and equilibrated against phosphate buffer for 5 h at 37° C. (in a humidified air incubator with 5% CO2 with shaking). Samples from both chambers (buffer and plasma or brain homogenate) were aliquoted to fresh 96-well polypropylene plates then matrix matched using an equal volume of opposite blank matrix before extraction with cold solvent (3 volumes acetonitrile) containing an appropriate bioanalytical internal standard. After centrifugation (20 min, 3200 g, 4° C.) the supernatants were diluted with appropriate volumes of water and compound concentrations were quantified by LC/MS-MS against matrix matched calibration standards. The fuplasma and fubrain were calculated according to equation 4 below.
[formula] Where [F] is the compound concentration on the buffer (receiver) side of the membrane; [T] is the compound concentration on the plasma or brain (donor) side of the membrane; D is the matrix dilution factor which is determined as D=4 for brain matrix and D=1 for plasma matrix in these assays.

LRRK2 G2019S = LRRK2 G2019S (Homo sapiens (Human), UniProt Q5S007, G2019S); experiment: LRRK2 G2019S LanthaScreen TR-FRET kinase activity assay; assay type: biochemical; details: 250 pM kinase, 1.3 mM ATP, n≥2 tests
Chain of LRRK2 G2019S (Q5S007 970-2527 G2019S): as the sequence (Q5S007 970-2527) above, with G1050S counted along it
Description: (§1) LRRK2 kinase activity was measured using a LanthaScreen kinase activity assay available from Invitrogen (Life Technologies Corporation). […] The phosphorylated peptide is recognized by a terbium-labelled phospho-specific anti-LRRKtide antibody (pLRRKtide antibody), obtainable from Life Technologies Corporation) and, subsequently, the phosphorylated LRRKtide can be quantified by the extent of TR-FRET between the terbium donor and fluorescein acceptor.
(§2) As discussed above, this mutation increases the kinase activity relative to the wild type. The kinase reactions were performed in a 20 μL volume in 384-well plates. The kinase reaction buffer consisted of 50 mM Tris pH 8.5, 0.01% BRIJ-35, 10 mM MgCl2, 1 mM EGTA, and 2 mM DTT.
(§3) The mixture was further incubated for 30 minutes at RT. TR-FRET was measured by excitation of the terbium-donor with 340 nm light and subsequent (delay time […]) measurement of terbium and fluorescein emission at 495 nm and 520 nm, respectively, over a time window of […]. The measurement was repeated 30 times for fluorescein and 30 times for terbium emission with a […] between repeats. TR-FRET measurements were performed on a Biotek Synergy plate. The TR-FRET signal was calculated as the emission-ratio at 520 nm over 495 nm.
(§4) Test compound potency (IC50) was estimated by nonlinear regression using the sigmoidal dose-response (variable slope) using Xlfit 4 (IDBS, Guildford, Surrey, UK, model 205). Were the IC50 could not be determined the % inhibition at the highest tested concentration is given by equation 1. Equation (1): y=(A+((B−A)/(1+((C/x)^D)))) (1)
(§5) where y is the normalized TR-TRET ratio measurement for a given concentration of test compound, x is the concentration of test compound, A is the estimated efficacy (% inhibition) at infinite compound dilution, and B is the maximal efficacy (% inhibition). C is the IC50 value and D is the Hill slope coefficient. IC50 estimates were obtained from independent experiment and the logarithmic average was calculated.

LRRK2 WT [6] = target: T1, LRRK2 WT; experiment: LRRK2 wild-type LanthaScreen TR-FRET kinase activity assay; assay type: biochemical; details: 1 nM kinase, 1.3 mM ATP, n≥2 tests
Description: as §1, §2, §3, §4, §5

[7] = brain, n=3, read-out: Total brain concentration
[8] = plasma, n=3, read-out: Total plasma concentration

SMILES | CLint scaled at 0.05 μM [1] [mL/min/kg] | CLint scaled at 1 μM [2] [mL/min/kg] | IC50 (LRRK2 WT [3]) [nM] | Kp at 1 h ([4]; brain) | Kp uu at 1 h ([4]; brain) | concentration at 1 h [4, 7] [ng/g] | concentration at 1 h [4, 8] [ng/mL] | fubrain (% free) [5] [% free] | fuplasma (% free) [5] [% free] | IC50 (LRRK2 G2019S) [nM] | IC50 (LRRK2 WT [6]) [nM] | Rate of metabolism classification (liver microsomal CLint) ([2]; based on liver microsomal CLint values of Table 6)
[2H]C([2H])([2H])Oc1ncc(F)cc1-n1nc2c(c1C)Nc1ncc3c(Cl)nn(c3n1)CCCO2 (single isomer, unassigned) [Example 23, 8-Chloro-2-(5-fluoro-2-(methoxy-d3)pyridin-3-yl)-3-methyl-2,4,12,13-tetrahydro-11H-5,7-(azenometheno)dipyrazolo[3,4-b:5′,1′-g][1]oxa[4,6,8]triazacycloundecine] | 16.2 | 23.8 |  |  |  |  |  |  |  |  |  | 
CCc1c2c(nn1-c1cccnc1OC)OCCCn1nc(Cl)c3cnc(nc31)N2 [Example 5, 8-Chloro-3-ethyl-2-(2-methoxypyridin-3-yl)-2,4,12,13-tetrahydro-11H-5,7-(azenometheno)dipyrazolo[3,4-b:5′,1′-g][1]oxa[4,6,8]triazacycloundecine] |  | 23.2 | 0.41 | 1.9 ± 0.3 | 0.8 ± 0.13 | 7 ± 3 | 4 ± 0.8 | 5.2 | 12.3 | 1.4 | 4 | 
CCc1c2c(nn1-c1cccnc1C)OCCCn1nc(Cl)c3cnc(nc31)N2 [Example 8, 8-Chloro-3-ethyl-2-(2-methylpyridin-3-yl)-2,4,12,13-tetrahydro-11H-5,7-(azenometheno)dipyrazolo[3,4-b:5′,1′-g][1]oxa[4,6,8]triazacycloundecine] |  | 16.8 | 2.5 | 0.9 ± 0.1 | 0.37 ± 0.03 | 279 ± 10 | 297 ± 29 | 7.5 | 19.3 | 12 | 35 | 
Cc1c2c(nn1-c1cccnc1OC1CC1)OCCCn1nc(Cl)c3cnc(nc31)N2 [Example 16, 8-Chloro-2-(2-cyclopropoxypyridin-3-yl)-3-methyl-2,4,12,13-tetrahydro-11H-5,7-(azenometheno)dipyrazolo[3,4-b:5′,1′-g][1]oxa[4,6,8]triazacycloundecine] |  | 18.7 | 0.57 | 1.3 ± 0.2 | 0.32 ± 0.06 | 141 ± 30 | 112 ± 18 | 3.5 | 13.9 | 0.93 | 2.1 | 
Cc1c2c(nn1-c1cccnc1OCF)OCCCn1nc(Cl)c3cnc(nc31)N2 [Example 18, 8-Chloro-2-(2-(fluoromethoxy)pyridin-3-yl)-3-methyl-2,4,12,13-tetrahydro-11H-5,7-(azenometheno)dipyrazolo[3,4-b:5′,1′-g][1]oxa[4,6,8]triazacycloundecine] |  | 11.2 | 0.44 | 2.8 ± 0.6 | 1.04 ± 0.21 | 343 ± 54 | 122 ± 11 | 4.7 | 12.8 | 0.49 | 0.67 | 
Cc1c2c(nn1-c1cccnc1OC(F)F)OCCCn1nc(Cl)c3cnc(nc31)N2 [Example 19, 8-Chloro-2-(2-(difluoromethoxy)pyridin-3-yl)-3-methyl-2,4,12,13-tetrahydro-11H-5,7-(azenometheno)dipyrazolo[3,4-b:5′,1′-g][1]oxa[4,6,8]triazacycloundecine] |  | 33.8 | 0.32 | 2.8 ± 0.5 | 0.87 ± 0.17 | 48 ± 11 | 19 ± 8 | 2.7 | 8.6 | 0.35 | 1.1 | moderate to high rate of metabolism
